Measured values: EP4745135A1 (Gluetacs Therapeutics (Shanghai) Co., Ltd., priority 2023, dated 2025)

Experiments:
IKZF2 = target: T1, IKZF2 (Homo sapiens, UniProt Q96SW2+Q9UKS7); experiment: Western blot, degradation of substrate protein in hPBMCs; type: cell-based; conditions: 24 hours treatment, compounds at 50 nM and 500 nM (concentration behind the class not stated)
T1 construct: effects of the compounds of the present disclosure on the expression of target proteins in cells; endogenous in cells; host or cells: human PBMCs (Milecell Biotechnologies)
T1 sequence (Q9UKS7 whole entry): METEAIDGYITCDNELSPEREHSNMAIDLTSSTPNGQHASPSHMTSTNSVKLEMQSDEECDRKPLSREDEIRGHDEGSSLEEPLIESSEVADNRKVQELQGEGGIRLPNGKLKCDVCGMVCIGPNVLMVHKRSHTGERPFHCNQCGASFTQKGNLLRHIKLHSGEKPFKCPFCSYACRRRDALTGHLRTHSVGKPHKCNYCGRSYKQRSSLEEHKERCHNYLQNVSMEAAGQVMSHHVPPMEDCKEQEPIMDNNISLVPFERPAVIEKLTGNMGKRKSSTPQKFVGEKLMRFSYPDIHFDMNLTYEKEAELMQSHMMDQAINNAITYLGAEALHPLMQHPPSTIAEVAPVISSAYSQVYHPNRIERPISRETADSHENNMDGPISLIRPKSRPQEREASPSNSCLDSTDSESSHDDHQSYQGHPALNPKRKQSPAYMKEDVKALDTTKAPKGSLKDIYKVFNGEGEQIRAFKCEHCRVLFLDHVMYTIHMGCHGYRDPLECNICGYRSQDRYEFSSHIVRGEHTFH
T1 sequence (Q96SW2 whole entry): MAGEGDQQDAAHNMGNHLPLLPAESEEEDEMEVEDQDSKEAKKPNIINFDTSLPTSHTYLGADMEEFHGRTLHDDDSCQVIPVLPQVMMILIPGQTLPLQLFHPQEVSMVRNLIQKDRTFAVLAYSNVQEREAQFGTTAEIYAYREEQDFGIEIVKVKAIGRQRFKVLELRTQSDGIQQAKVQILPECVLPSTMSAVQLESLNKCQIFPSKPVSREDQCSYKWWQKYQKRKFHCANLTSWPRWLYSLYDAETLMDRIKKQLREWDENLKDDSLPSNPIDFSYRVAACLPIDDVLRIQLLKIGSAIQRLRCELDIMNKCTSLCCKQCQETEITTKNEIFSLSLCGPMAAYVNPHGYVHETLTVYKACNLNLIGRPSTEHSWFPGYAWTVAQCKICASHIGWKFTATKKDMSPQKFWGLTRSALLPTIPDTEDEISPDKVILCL
T1 sequence (Q16531 whole entry partner): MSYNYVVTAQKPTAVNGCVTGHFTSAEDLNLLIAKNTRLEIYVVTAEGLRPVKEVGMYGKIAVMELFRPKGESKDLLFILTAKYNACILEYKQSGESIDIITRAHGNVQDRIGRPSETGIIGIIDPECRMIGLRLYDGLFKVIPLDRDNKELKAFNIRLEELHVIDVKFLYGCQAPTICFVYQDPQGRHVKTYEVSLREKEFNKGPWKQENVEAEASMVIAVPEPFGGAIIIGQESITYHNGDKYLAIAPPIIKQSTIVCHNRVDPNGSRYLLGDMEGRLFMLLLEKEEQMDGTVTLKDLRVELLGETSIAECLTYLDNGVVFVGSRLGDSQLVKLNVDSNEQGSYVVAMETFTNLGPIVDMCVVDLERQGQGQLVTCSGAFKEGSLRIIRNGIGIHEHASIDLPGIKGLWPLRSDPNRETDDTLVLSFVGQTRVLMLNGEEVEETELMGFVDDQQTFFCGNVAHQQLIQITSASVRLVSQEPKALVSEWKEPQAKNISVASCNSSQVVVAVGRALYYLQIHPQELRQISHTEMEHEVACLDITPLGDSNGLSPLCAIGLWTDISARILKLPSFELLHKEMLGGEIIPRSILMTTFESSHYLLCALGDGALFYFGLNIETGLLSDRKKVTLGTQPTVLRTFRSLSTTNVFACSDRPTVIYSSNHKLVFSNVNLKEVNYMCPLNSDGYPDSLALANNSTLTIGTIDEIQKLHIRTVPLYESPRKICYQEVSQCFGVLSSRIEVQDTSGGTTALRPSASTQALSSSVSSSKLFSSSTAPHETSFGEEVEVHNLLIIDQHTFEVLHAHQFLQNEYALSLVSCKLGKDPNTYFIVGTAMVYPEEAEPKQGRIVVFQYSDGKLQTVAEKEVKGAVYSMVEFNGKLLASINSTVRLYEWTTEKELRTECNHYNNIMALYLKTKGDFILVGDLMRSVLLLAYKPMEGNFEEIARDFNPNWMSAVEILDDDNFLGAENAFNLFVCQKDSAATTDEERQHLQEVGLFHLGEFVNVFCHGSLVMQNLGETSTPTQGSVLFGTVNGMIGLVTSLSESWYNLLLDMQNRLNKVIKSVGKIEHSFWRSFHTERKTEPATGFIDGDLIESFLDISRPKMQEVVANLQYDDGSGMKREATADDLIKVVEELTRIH

CK1α = target: T2, CK1α (Homo sapiens, UniProt P48729+Q96SW2); experiment: as above; type: cell-based; conditions: 24 hours treatment, compounds at 50 nM and 500 nM (concentration behind the class not stated)
T2 construct: effects of the compounds of the present disclosure on the expression of target proteins in cells; endogenous in cells; host or cells: human PBMCs (Milecell Biotechnologies)
T2 sequence (P48729 whole entry): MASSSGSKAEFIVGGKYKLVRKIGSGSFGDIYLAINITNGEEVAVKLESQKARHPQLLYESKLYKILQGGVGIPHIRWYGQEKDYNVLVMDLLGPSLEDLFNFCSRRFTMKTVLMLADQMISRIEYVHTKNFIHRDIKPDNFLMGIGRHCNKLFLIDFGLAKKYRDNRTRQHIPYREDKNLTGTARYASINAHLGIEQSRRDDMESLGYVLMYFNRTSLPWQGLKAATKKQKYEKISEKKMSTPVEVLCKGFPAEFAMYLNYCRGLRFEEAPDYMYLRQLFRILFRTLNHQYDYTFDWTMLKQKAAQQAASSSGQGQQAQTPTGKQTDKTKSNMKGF
T2 sequence (Q96SW2 whole entry): as the sequence (Q96SW2 whole entry) above
T2 sequence (Q16531 whole entry partner): as the sequence (Q16531 whole entry partner) above

WEE1 = target: T3, WEE1 (Homo sapiens, UniProt P30291+Q96SW2); experiment: as above; type: cell-based; conditions: 24 hours treatment, compounds at 50 nM and 500 nM (concentration behind the class not stated)
T3 construct: effects of the compounds of the present disclosure on the expression of target proteins in cells; endogenous in cells; host or cells: human PBMCs (Milecell Biotechnologies)
T3 sequence (P30291 whole entry): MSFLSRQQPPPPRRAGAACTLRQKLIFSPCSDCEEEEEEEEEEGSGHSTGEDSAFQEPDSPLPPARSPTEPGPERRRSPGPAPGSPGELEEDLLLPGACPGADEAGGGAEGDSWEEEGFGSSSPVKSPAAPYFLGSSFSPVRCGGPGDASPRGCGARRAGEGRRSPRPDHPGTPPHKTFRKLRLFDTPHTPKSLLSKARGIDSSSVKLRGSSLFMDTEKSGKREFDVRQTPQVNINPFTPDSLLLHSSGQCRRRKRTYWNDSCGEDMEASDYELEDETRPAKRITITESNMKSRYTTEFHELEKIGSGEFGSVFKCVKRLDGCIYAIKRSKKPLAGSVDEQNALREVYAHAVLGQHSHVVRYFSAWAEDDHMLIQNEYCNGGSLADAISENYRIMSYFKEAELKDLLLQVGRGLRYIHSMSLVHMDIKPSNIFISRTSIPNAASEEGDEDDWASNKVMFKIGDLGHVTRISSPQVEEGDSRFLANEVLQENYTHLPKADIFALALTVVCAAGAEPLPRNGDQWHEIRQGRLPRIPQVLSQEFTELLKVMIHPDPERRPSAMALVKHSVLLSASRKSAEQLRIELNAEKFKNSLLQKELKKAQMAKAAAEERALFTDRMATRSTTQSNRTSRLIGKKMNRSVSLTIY
T3 sequence (Q96SW2 whole entry): as the sequence (Q96SW2 whole entry) above
T3 sequence (Q16531 whole entry partner): as the sequence (Q16531 whole entry partner) above

IKZF3 = target: T4, IKZF3 (Homo sapiens, UniProt Q96SW2+Q9UKT9); experiment: as above; type: cell-based; conditions: 24 hours treatment, compounds at 50 nM and 500 nM (concentration behind the class not stated)
T4 construct: effects of the compounds of the present disclosure on the expression of target proteins in cells; endogenous in cells; host or cells: human PBMCs (Milecell Biotechnologies)
T4 sequence (Q9UKT9 whole entry): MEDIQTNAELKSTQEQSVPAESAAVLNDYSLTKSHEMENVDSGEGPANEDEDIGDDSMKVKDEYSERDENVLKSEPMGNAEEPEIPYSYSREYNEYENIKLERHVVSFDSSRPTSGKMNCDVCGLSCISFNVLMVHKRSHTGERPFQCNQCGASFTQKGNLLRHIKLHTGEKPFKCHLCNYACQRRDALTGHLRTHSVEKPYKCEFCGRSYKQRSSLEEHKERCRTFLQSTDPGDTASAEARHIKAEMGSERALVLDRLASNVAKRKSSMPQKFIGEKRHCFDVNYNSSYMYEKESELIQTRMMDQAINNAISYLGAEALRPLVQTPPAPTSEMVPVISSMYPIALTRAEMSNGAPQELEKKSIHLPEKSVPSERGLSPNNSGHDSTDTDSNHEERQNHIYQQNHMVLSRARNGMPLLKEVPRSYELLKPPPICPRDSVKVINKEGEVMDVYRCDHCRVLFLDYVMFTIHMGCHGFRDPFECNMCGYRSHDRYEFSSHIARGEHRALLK
T4 sequence (Q96SW2 whole entry): as the sequence (Q96SW2 whole entry) above
T4 sequence (Q16531 whole entry partner): as the sequence (Q16531 whole entry partner) above

IKZF1 = target: T5, IKZF1 (Homo sapiens, UniProt Q13422+Q96SW2); experiment: as above; type: cell-based; conditions: 24 hours treatment, compounds at 50 nM and 500 nM (concentration behind the class not stated)
T5 construct: effects of the compounds of the present disclosure on the expression of target proteins in cells; endogenous in cells; host or cells: human PBMCs (Milecell Biotechnologies)
T5 sequence (Q13422 whole entry): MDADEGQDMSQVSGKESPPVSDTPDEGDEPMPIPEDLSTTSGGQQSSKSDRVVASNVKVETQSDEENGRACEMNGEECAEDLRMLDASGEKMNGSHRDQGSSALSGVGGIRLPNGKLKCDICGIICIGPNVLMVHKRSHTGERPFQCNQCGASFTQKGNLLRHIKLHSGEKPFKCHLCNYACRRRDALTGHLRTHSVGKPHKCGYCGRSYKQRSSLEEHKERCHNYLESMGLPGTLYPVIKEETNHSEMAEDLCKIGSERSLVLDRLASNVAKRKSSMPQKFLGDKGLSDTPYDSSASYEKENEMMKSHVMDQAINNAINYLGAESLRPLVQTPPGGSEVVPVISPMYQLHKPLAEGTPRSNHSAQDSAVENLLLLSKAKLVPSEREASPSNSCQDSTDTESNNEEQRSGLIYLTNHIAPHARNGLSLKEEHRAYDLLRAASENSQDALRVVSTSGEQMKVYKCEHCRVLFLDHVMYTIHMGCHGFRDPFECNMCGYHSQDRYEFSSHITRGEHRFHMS
T5 sequence (Q96SW2 whole entry): as the sequence (Q96SW2 whole entry) above
T5 sequence (Q16531 whole entry partner): as the sequence (Q16531 whole entry partner) above

GSPT1 = experiment: as above; type: cell-based, Human; conditions: 24 hours treatment, compounds at 50 nM and 500 nM (concentration behind the class not stated)
[1] = target: T6, human Cereblon WT GST-tagged protein (Homo sapiens, UniProt Q96SW2); experiment: CRBN-binding affinity, HTRF (CEREBLON BINDING kit); conditions: for inhibition at 0.5 µM: read-out: Inhibition Rate at 0.5 µM (%); for inhibition at 2 µM: read-out: Inhibition Rate at 2 µM (%)
T6 construct: purchased CISBIO 64BDCRBNPEH
T6 sequence (Q96SW2 whole entry): as the sequence (Q96SW2 whole entry) above

| inhibition at 0.5 µM [1] [%] | inhibition at 2 µM [1] [%] | SMILES | IKZF2 substrate protein remaining % (IKZF2) | CK1α substrate protein remaining % (CK1α) | Wee1 substrate protein remaining % (WEE1) | IKZF3 substrate protein remaining % (IKZF3) | IKZF 1 substrate protein remaining % (IKZF1) | GSPT1 substrate protein remaining % (GSPT1) |
| --- | --- | --- | --- | --- | --- | --- | --- | --- |
| 60 to 80 | 80 to 100 | Cc1nc(N2CCN(Cc3cccc4c3CN(C3CCC(=O)NC3=O)C4=S)CC2)c2ccsc2n1 (stereo not shown) [GT-08922, 3-(4-((4-(2-methylthieno[2,3-d]pyrimidin-4-yl)piperazin-1-yl)methyl)-1-thioxoisoindolin-2-yl)piperidine-2,6-dione] | B (80%< substrate protein remaining %≤ 100%) | B (80%< substrate protein remaining %≤ 100%) | A (0% ≤ substrate protein remaining % ≤ 80%) | B (80%< substrate protein remaining %≤ 100%) | B (80%< substrate protein remaining %≤ 100%) | B (80%< substrate protein remaining %≤ 100%) |
| 60 to 80 | 80 to 100 | O=C1CCC(N2Cc3c(CN4CCN(c5ncc6ccsc6n5)CC4)cccc3C2=S)C(=O)N1 (stereo not shown) [GT-08927, 3-(4-((4-(thieno[2,3-d]pyrimidin-2-yl)piperazin-1-yl)methyl)-1-thioxoisoindolin-2-yl)piperidine-2,6-dione] | A (0% ≤ substrate protein remaining % ≤ 80%) | B (80%< substrate protein remaining %≤ 100%) | A (0% ≤ substrate protein remaining % ≤ 80%) | A (0% ≤ substrate protein remaining % ≤ 80%) | B (80%< substrate protein remaining %≤ 100%) | B (80%< substrate protein remaining %≤ 100%) |
| 30 to 40 | 60 to 80 | O=C1CCC(N2Cc3c(CN4CCC(c5ncnc6sc(-c7ccccc7)cc56)CC4)cccc3C2=S)C(=O)N1 (stereo not shown) [GT-08929, 3-(4-((4-(6-phenylthieno[2,3-d]pyrimidin-4-yl)piperidin-1-yl)methyl)-1-thioxoisoindolin-2-yl)piperidine-2,6-dione] | B (80%< substrate protein remaining %≤ 100%) | B (80%< substrate protein remaining %≤ 100%) | A (0% ≤ substrate protein remaining % ≤ 80%) | B (80%< substrate protein remaining %≤ 100%) | B (80%< substrate protein remaining %≤ 100%) | B (80%< substrate protein remaining %≤ 100%) |
| 53 to 60 | 80 to 100 | O=C1CCC(N2Cc3c(CN4CCC(c5ncnc6scc(-c7ccccc7)c56)CC4)cccc3C2=S)C(=O)N1 (stereo not shown) [GT-08930, 3-(4-((4-(5-phenylthieno[2,3-d]pyrimidin-4-yl)piperidin-1-yl)methyl)-1-thioxoisoindolin-2-yl)piperidine-2,6-dione] | B (80%< substrate protein remaining %≤ 100%) | B (80%< substrate protein remaining %≤ 100%) | A (0% ≤ substrate protein remaining % ≤ 80%) | B (80%< substrate protein remaining %≤ 100%) | B (80%< substrate protein remaining %≤ 100%) | B (80%< substrate protein remaining %≤ 100%) |
| 60 to 80 | 80 to 100 | Cc1nc(C2CCN(Cc3cccc4c3CN(C3CCC(=O)NC3=O)C4=S)CC2)c2ccsc2n1 (stereo not shown) [GT-08932, 3-(4-((4-(2-methylthieno[2,3-d]pyrimidin-4-yl)piperidin-1-yl)methyl)-1-thioxoisoindolin-2-yl)piperidine-2,6-dione] | B (80%< substrate protein remaining %≤ 100%) | B (80%< substrate protein remaining %≤ 100%) | A (0% ≤ substrate protein remaining % ≤ 80%) | B (80%< substrate protein remaining %≤ 100%) | B (80%< substrate protein remaining %≤ 100%) | B (80%< substrate protein remaining %≤ 100%) |
| 60 to 80 | 80 to 100 | O=C1CCC(N2Cc3c(CN4CCC(c5ncc6ccsc6n5)CC4)cccc3C2=S)C(=O)N1 (stereo not shown) [GT-08936, 3-(4-((4-(thieno[2,3-d]pyrimidin-2-yl)piperidin-1-yl)methyl)-1-thioxoisoindolin-2-yl)piperidine-2,6-dione] | B (80%< substrate protein remaining %≤ 100%) | B (80%< substrate protein remaining %≤ 100%) | A (0% ≤ substrate protein remaining % ≤ 80%) | B (80%< substrate protein remaining %≤ 100%) | A (0% ≤ substrate protein remaining % ≤ 80%) | A (0% ≤ substrate protein remaining % ≤ 80%) |

More lines, now with the values behind:

| SMILES | inhibition at 0.5 µM [1] [%] | inhibition at 2 µM [1] [%] | IKZF2 substrate protein remaining % (IKZF2) | CK1α substrate protein remaining % (CK1α) | Wee1 substrate protein remaining % (WEE1) | IKZF3 substrate protein remaining % (IKZF3) | IKZF 1 substrate protein remaining % (IKZF1) | GSPT1 substrate protein remaining % (GSPT1) |
| --- | --- | --- | --- | --- | --- | --- | --- | --- |
| O=C1CCC(N2Cc3c(CN4CCN(c5ncnc6sc7c(c56)CCCC7)CC4)cccc3C2=S)C(=O)N1 (stereo not shown) [GT-08924, 3-(4-((4-(5,6,7,8-tetrahydrobenzo[4,5]thieno[2,3-d]pyrimidin-4-yl)piperazin-1-yl)methyl)-1-thioxoisoindolin-2-yl)piperidine-2,6-dione] | 40 to 53 | 80 to 100 | A (0% ≤ substrate protein remaining % ≤ 80%) | B (80%< substrate protein remaining %≤ 100%) | A (0% ≤ substrate protein remaining % ≤ 80%) | B (80%< substrate protein remaining %≤ 100%) | B (80%< substrate protein remaining %≤ 100%) | B (80%< substrate protein remaining %≤ 100%) |
| Cc1nc(N2CCN(Cc3cccc4c3CN(C3CCC(=O)NC3=O)C4=S)CC2)c2c3c(sc2n1)CCC3 (stereo not shown) [GT-08926, 3-(4-((4-(2-methyl-6,7-dihydro-5H-cyclopenta[4,5]thieno[2,3-d]pyrimidin-4-yl)piperazin-1-yl)methyl)-1-thioxoisoindolin-2-yl)piperidine-2,6-dione] | 53 to 60 | 80 to 100 | B (80%< substrate protein remaining %≤ 100%) | B (80%< substrate protein remaining %≤ 100%) | A (0% ≤ substrate protein remaining % ≤ 80%) | B (80%< substrate protein remaining %≤ 100%) | B (80%< substrate protein remaining %≤ 100%) | B (80%< substrate protein remaining %≤ 100%) |
| Cc1nc(C2CCN(Cc3cccc4c3CN(C3CCC(=O)NC3=O)C4=S)CC2)c2c3c(sc2n1)CCCC3 (stereo not shown) [GT-08933, 3-(4-((4-(2-methyl-5,6,7,8-tetrahydrobenzo[4,5]thieno[2,3-d]pyrimidin-4-yl)piperidin-1-yl)methyl)-1-thioxoisoindolin-2-yl)piperidine-2,6-dione] | 53 to 60 | 60 to 80 | B (80%< substrate protein remaining %≤ 100%) | B (80%< substrate protein remaining %≤ 100%) | A (0% ≤ substrate protein remaining % ≤ 80%) | B (80%< substrate protein remaining %≤ 100%) | A (0% ≤ substrate protein remaining % ≤ 80%) | A (0% ≤ substrate protein remaining % ≤ 80%) |
| Cc1nc(C2CCN(Cc3cccc4c3CN(C3CCC(=O)NC3=O)C4=S)CC2)c2c3c(sc2n1)CCC3 (stereo not shown) [GT-08935, 3-(4-((4-(2-methyl-6,7-dihydro-5H-cyclopenta[4,5]thieno[2,3-d]pyrimidin-4-yl)piperidin-1-yl)methyl)-1-thioxoisoindolin-2-yl)piperidine-2,6-dione] | 60 to 80 | 80 to 100 | B (80%< substrate protein remaining %≤ 100%) | B (80%< substrate protein remaining %≤ 100%) | A (0% ≤ substrate protein remaining % ≤ 80%) | A (0% ≤ substrate protein remaining % ≤ 80%) | A (0% ≤ substrate protein remaining % ≤ 80%) | A (0% ≤ substrate protein remaining % ≤ 80%) |
| CC(C)c1cc2c(C3=CCN(Cc4cccc5c4CN(C4CCC(=O)NC4=O)C5=S)CC3)ncnc2s1 (stereo not shown) [GT-08954, 3-(4-((4-(6-isopropylthieno[2,3-d]pyrimidin-4-yl)-3,6-dihydropyridin-1(2H)-yl)methyl)-1-thioxoisoindolin-2-yl)piperidine-2,6-dione] | 40 to 53 | 60 to 80 | B (80%< substrate protein remaining %≤ 100%) | B (80%< substrate protein remaining %≤ 100%) | A (0% ≤ substrate protein remaining % ≤ 80%) | B (80%< substrate protein remaining %≤ 100%) | B (80%< substrate protein remaining %≤ 100%) | A (0% ≤ substrate protein remaining % ≤ 80%) |
